In BindingDB's records for doi:10.1016/j.bmcl.2005.03.034 (Glaxosmithkline, 2005):

Biological target: Vascular endothelial growth factor receptor 2 (Homo sapiens, UniProt P35968)
Test: Homogeneous Time-resolved Fluorescence (HTRF) Assay
Description: The assay was using baculovirus-expressed recombinant protein kinase purified as the intracellular domain fused by GST tag, interacting with biotinylated peptide substrate. HTRF is based on the proximity of europium cryptate (donor fluorophore)-labeled antiphosphotyrosine and streptavidin labeled with APC(allophycocyanin), which have been brought together by a binding reaction. When the two entities come into close proximity and upon excitation, energy transfer occurs and APC re-emits at 665 nm.

Chain of Vascular endothelial growth factor receptor 2 (P35968 whole entry): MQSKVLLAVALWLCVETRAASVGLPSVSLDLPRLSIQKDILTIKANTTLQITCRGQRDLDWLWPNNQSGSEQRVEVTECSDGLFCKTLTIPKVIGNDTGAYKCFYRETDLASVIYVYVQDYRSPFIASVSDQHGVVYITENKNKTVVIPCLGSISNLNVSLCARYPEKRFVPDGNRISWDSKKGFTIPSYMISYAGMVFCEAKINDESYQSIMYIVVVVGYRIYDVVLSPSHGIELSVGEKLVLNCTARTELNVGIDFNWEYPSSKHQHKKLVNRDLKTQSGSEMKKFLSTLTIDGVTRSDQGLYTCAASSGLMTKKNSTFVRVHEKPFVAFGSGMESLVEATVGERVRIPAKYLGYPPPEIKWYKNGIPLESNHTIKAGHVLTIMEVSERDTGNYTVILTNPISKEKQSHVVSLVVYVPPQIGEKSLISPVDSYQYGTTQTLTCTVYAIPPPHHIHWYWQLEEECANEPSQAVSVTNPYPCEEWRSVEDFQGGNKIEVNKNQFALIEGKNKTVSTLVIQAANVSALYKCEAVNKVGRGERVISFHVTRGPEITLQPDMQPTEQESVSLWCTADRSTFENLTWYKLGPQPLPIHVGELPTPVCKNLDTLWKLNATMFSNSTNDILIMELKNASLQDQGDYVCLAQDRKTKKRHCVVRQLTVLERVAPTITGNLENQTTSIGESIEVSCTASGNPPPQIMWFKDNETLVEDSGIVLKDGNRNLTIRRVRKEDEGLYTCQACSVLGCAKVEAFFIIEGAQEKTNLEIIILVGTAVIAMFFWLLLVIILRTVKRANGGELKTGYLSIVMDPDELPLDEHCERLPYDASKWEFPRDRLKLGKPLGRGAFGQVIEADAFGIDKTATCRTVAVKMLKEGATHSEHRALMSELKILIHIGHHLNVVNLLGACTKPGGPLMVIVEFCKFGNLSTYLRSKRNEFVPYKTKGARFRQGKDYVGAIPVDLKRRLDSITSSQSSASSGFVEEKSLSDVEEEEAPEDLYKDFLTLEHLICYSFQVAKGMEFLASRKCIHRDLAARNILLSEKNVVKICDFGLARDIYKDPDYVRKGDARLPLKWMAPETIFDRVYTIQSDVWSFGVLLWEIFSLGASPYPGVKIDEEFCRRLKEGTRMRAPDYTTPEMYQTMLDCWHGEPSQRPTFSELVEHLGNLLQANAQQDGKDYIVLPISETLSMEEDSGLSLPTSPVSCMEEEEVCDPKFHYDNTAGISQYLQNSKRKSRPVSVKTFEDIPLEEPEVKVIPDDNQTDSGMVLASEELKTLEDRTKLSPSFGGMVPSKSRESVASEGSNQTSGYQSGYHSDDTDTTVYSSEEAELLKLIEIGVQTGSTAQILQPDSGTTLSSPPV

Row | SMILES | IC50 [nM]
1 | CN(c1ccc(NC(=O)Nc2ccccc2)cc1)c1ccnc(Nc2cccc(S(N)(=O)=O)c2)n1 [3-{4-[methyl({2-[(3-sulfamoylphenyl)amino]pyrimidin-4-yl})amino]phenyl}-1-phenylurea] | 5
2 | CN(c1ccc(NS(=O)(=O)Cc2ccccc2)cc1)c1ccnc(Nc2cccc(CS(C)(=O)=O)c2)n1 [N-{4-[(2-{[3-(methanesulfonylmethyl)phenyl]amino}pyrimidin-4-yl)(methyl)amino]phenyl}-1-phenylmethanesulfonamide] | 269
3 | CN(c1ccc(NC(=O)Cc2ccccc2)cc1)c1ccnc(Nc2cccc(CS(C)(=O)=O)c2)n1 [N-{4-[(2-{[3-(methanesulfonylmethyl)phenyl]amino}pyrimidin-4-yl)(methyl)amino]phenyl}-2-phenylacetamide] | 176
4 | CN(c1ccc(NC(=O)Oc2ccccc2)cc1)c1ccnc(Nc2cccc(CS(C)(=O)=O)c2)n1 [phenyl N-{4-[(2-{[3-(methanesulfonylmethyl)phenyl]amino}pyrimidin-4-yl)(methyl)amino]phenyl}carbamate] | 95

Now from value to compound:

Row | IC50 [nM] | SMILES
5 | 324 | CN(c1ccc(NC(=N)Nc2ccccc2)cc1)c1ccnc(Nc2cccc(CS(C)(=O)=O)c2)n1 [1-{4-[(2-{[3-(methanesulfonylmethyl)phenyl]amino}pyrimidin-4-yl)(methyl)amino]phenyl}benzeneguanidine]
6 | 117 | CN(c1ccc(NC(=S)Nc2ccccc2)cc1)c1ccnc(Nc2cccc(CS(C)(=O)=O)c2)n1 [3-{4-[(2-{[3-(methanesulfonylmethyl)phenyl]amino}pyrimidin-4-yl)(methyl)amino]phenyl}-1-phenylthiourea]
7 | 18 | CN(c1ccc(NC(=O)Nc2ccccc2)cc1)c1ccnc(Nc2cccc(CS(C)(=O)=O)c2)n1 [3-{4-[(2-{[3-(methanesulfonylmethyl)phenyl]amino}pyrimidin-4-yl)(methyl)amino]phenyl}-1-phenylurea]
